# Data reported in patent US20180036289A1 (Gilead Sciences, Inc., priority 2016, published 2018).
# Key:
# Assay in all cases: Cell proliferation assay (ATPlite), drug with vs without cobicistat
# Type in all cases: cell-based
# 769-P = 769-P cell line; 120 hours incubation
# Procedure, shortened: (§1)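 Luminescent ATP readout (ATPlite 1Step), 10 min dark incubation. Exposure: 120 h, 37 °C, humidified 5% CO2. Concentrations: 3.16×10^−5 to 3.16×10^−9 M, 3.16-fold apart.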
# 786-O = 786-O cell line; 120 hours incubation
# Procedure, shortened: as §1
# A-172 = A-172 cell line; 120 hours incubation
# Procedure, shortened: as §1
# A-427 = A-427 cell line; 120 hours incubation
# Procedure, shortened: as §1
# A-704 = A-704 cell line; 120 hours incubation
# Procedure, shortened: as §1
# AN3 CA = AN3 CA cell line; 120 hours incubation
# Procedure, shortened: as §1
# AU-565 = AU-565 cell line; 120 hours incubation
# Procedure, shortened: as §1
# AsPC-1 = AsPC-1 cell line; 120 hours incubation
# Procedure, shortened: as §1
# BT-20 = BT-20 cell line; 120 hours incubation
# Procedure, shortened: as §1
# C-33 A = C-33 A cell line; 120 hours incubation
# Procedure, shortened: as §1
# CAL 27 = CAL 27 cell line; 120 hours incubation
# Procedure, shortened: as §1
# CCRF-CEM = CCRF-CEM cell line; 120 hours incubation
# Procedure, shortened: as §1
# COLO 205 = COLO 205 cell line; 120 hours incubation
# Procedure, shortened: as §1
# DU 145 = DU 145 cell line; 120 hours incubation
# Procedure, shortened: as §1
# FaDu = FaDu cell line; 120 hours incubation
# Procedure, shortened: as §1
# HCT-15 = HCT-15 cell line; 120 hours incubation
# Procedure, shortened: as §1
# Hs 578T = Hs 578T cell line; 120 hours incubation
# Procedure, shortened: as §1
# J82 = J82 cell line; 120 hours incubation
# Procedure, shortened: as §1
# LNCaP FGC = LNCaP FGC cell line; 120 hours incubation
# Procedure, shortened: as §1
# LoVo = LoVo cell line; 120 hours incubation
# Procedure, shortened: as §1
# MCF7 = MCF7 cell line; 120 hours incubation
# Procedure, shortened: as §1
# MOLT-4 = MOLT-4 cell line; 120 hours incubation
# Procedure, shortened: as §1
# MeWo = MeWo cell line; 120 hours incubation
# Procedure, shortened: as §1
# NCI-H82 = NCI-H82 cell line; 120 hours incubation
# Procedure, shortened: as §1
# RPMI-7951 = RPMI-7951 cell line; 120 hours incubation
# Procedure, shortened: as §1
# SK-N-AS = SK-N-AS cell line; 120 hours incubation
# Procedure, shortened: as §1
# SR = SR cell line; 120 hours incubation
# Procedure, shortened: as §1
# SW480 = SW480 cell line; 120 hours incubation
# Procedure, shortened: as §1
# T98G = T98G cell line; 120 hours incubation
# Procedure, shortened: as §1
# U-87 MG = U-87 MG cell line; 120 hours incubation
# Procedure, shortened: as §1
SMILES,Fold change in IC50 (IC50 [Drug + Cobicistat]/IC50 [Drug]) (769-P) [fold],Fold change in IC50 (IC50 [Drug + Cobicistat]/IC50 [Drug]) (786-O) [fold],Fold change in IC50 (IC50 [Drug + Cobicistat]/IC50 [Drug]) (A-172) [fold],Fold change in IC50 (IC50 [Drug + Cobicistat]/IC50 [Drug]) (A-427) [fold],Fold change in IC50 (IC50 [Drug + Cobicistat]/IC50 [Drug]) (A-704) [fold],Fold change in IC50 (IC50 [Drug + Cobicistat]/IC50 [Drug]) (AN3 CA) [fold],Fold change in IC50 (IC50 [Drug + Cobicistat]/IC50 [Drug]) (AU-565) [fold],Fold change in IC50 (IC50 [Drug + Cobicistat]/IC50 [Drug]) (AsPC-1) [fold],Fold change in IC50 (IC50 [Drug + Cobicistat]/IC50 [Drug]) (BT-20) [fold],Fold change in IC50 (IC50 [Drug + Cobicistat]/IC50 [Drug]) (C-33 A) [fold],Fold change in IC50 (IC50 [Drug + Cobicistat]/IC50 [Drug]) (CAL 27) [fold],Fold change in IC50 (IC50 [Drug + Cobicistat]/IC50 [Drug]) (CCRF-CEM) [fold],Fold change in IC50 (IC50 [Drug + Cobicistat]/IC50 [Drug]) (COLO 205) [fold],Fold change in IC50 (IC50 [Drug + Cobicistat]/IC50 [Drug]) (DU 145) [fold],Fold change in IC50 (IC50 [Drug + Cobicistat]/IC50 [Drug]) (FaDu) [fold],Fold change in IC50 (IC50 [Drug + Cobicistat]/IC50 [Drug]) (HCT-15) [fold],Fold change in IC50 (IC50 [Drug + Cobicistat]/IC50 [Drug]) (Hs 578T) [fold],Fold change in IC50 (IC50 [Drug + Cobicistat]/IC50 [Drug]) (J82) [fold],Fold change in IC50 (IC50 [Drug + Cobicistat]/IC50 [Drug]) (LNCaP FGC) [fold],Fold change in IC50 (IC50 [Drug + Cobicistat]/IC50 [Drug]) (LoVo) [fold],also measured
CC(=O)O[C@H]1C(=O)[C@@]2(C)[C@H]([C@H](OC(=O)c3ccccc3)[C@]3(O)C[C@H](OC(=O)[C@H](O)[C@@H](NC(=O)c4ccccc4)c4ccccc4)C(C)=C1C3(C)C)[C@]1(OC(C)=O)CO[C@@H]1C[C@@H]2O [paclitaxel],2.9,3.0,1.7,1.2,1.5,2.9,2.7,2.2,1.5,1.3,2.0,2.6,3.0,4.8,1.3,2.4,2.6,2.9,2.5,1.3,Fold change in IC50 (IC50 [Drug + Cobicistat]/IC50 [Drug]) (MCF7): 3.3 fold; Fold change in IC50 (IC50 [Drug + Cobicistat]/IC50 [Drug]) (MOLT-4): 2.1 fold; Fold change in IC50 (IC50 [Drug + Cobicistat]/IC50 [Drug]) (MeWo): 2.0 fold; Fold change in IC50 (IC50 [Drug + Cobicistat]/IC50 [Drug]) (NCI-H82): 2.4 fold; Fold change in IC50 (IC50 [Drug + Cobicistat]/IC50 [Drug]) (RPMI-7951): 2.9 fold; Fold change in IC50 (IC50 [Drug + Cobicistat]/IC50 [Drug]) (SK-N-AS): 2.3 fold; Fold change in IC50 (IC50 [Drug + Cobicistat]/IC50 [Drug]) (SR): 1.8 fold; Fold change in IC50 (IC50 [Drug + Cobicistat]/IC50 [Drug]) (SW480): 1.9 fold; Fold change in IC50 (IC50 [Drug + Cobicistat]/IC50 [Drug]) (T98G): 5.2 fold; Fold change in IC50 (IC50 [Drug + Cobicistat]/IC50 [Drug]) (U-87 MG): 2.2 fold
CC(=O)O[C@@]12CO[C@@H]1C[C@H](O)[C@@]1(C)C(=O)[C@H](O)C3=C(C)[C@@H](OC(=O)[C@H](O)[C@@H](NC(=O)OC(C)(C)C)c4ccccc4)C[C@@](O)([C@@H](OC(=O)c4ccccc4)[C@H]21)C3(C)C [docetaxel],3.0,4.2,2.0,1.3,2.3,2.1,3.2,5.0,1.7,1.5,1.4,3.6,3.9,4.8,1.7,2.8,1.9,3.5,3.8,2.0,Fold change in IC50 (IC50 [Drug + Cobicistat]/IC50 [Drug]) (MCF7): 4.1 fold; Fold change in IC50 (IC50 [Drug + Cobicistat]/IC50 [Drug]) (MOLT-4): 1.7 fold; Fold change in IC50 (IC50 [Drug + Cobicistat]/IC50 [Drug]) (MeWo): 2.3 fold; Fold change in IC50 (IC50 [Drug + Cobicistat]/IC50 [Drug]) (NCI-H82): 2.2 fold; Fold change in IC50 (IC50 [Drug + Cobicistat]/IC50 [Drug]) (RPMI-7951): 3.3 fold; Fold change in IC50 (IC50 [Drug + Cobicistat]/IC50 [Drug]) (SK-N-AS): 3.3 fold; Fold change in IC50 (IC50 [Drug + Cobicistat]/IC50 [Drug]) (SR): 3.6 fold; Fold change in IC50 (IC50 [Drug + Cobicistat]/IC50 [Drug]) (SW480): 2.3 fold; Fold change in IC50 (IC50 [Drug + Cobicistat]/IC50 [Drug]) (T98G): 7.7 fold; Fold change in IC50 (IC50 [Drug + Cobicistat]/IC50 [Drug]) (U-87 MG): 2.0 fold
COc1cccc2c1C(=O)c1c(O)c3c(c(O)c1C2=O)C[C@@](O)(C(=O)CO)C[C@@H]3O[C@H]1C[C@H](N)[C@H](O)[C@H](C)O1 [doxorubicin],5.1,2.3,2.5,1.5,1.3,2.0,2.1,1.3,1.0,1.9,1.9,2.7,2.3,2.1,1.7,2.0,1.7,2.2,1.8,2.0,Fold change in IC50 (IC50 [Drug + Cobicistat]/IC50 [Drug]) (MCF7): 1.9 fold; Fold change in IC50 (IC50 [Drug + Cobicistat]/IC50 [Drug]) (MOLT-4): 1.9 fold; Fold change in IC50 (IC50 [Drug + Cobicistat]/IC50 [Drug]) (MeWo): 2.1 fold; Fold change in IC50 (IC50 [Drug + Cobicistat]/IC50 [Drug]) (NCI-H82): 2.6 fold; Fold change in IC50 (IC50 [Drug + Cobicistat]/IC50 [Drug]) (RPMI-7951): 2.3 fold; Fold change in IC50 (IC50 [Drug + Cobicistat]/IC50 [Drug]) (SK-N-AS): 2.3 fold; Fold change in IC50 (IC50 [Drug + Cobicistat]/IC50 [Drug]) (SR): 1.8 fold; Fold change in IC50 (IC50 [Drug + Cobicistat]/IC50 [Drug]) (SW480): 2.5 fold; Fold change in IC50 (IC50 [Drug + Cobicistat]/IC50 [Drug]) (T98G): 1.4 fold; Fold change in IC50 (IC50 [Drug + Cobicistat]/IC50 [Drug]) (U-87 MG): 0.7 fold
